Data on seven molecules can be found in EP0242855A2, “Crosslinking reaction inhibitor for collagen” (priority 1986, dated 1987).

Where “and” joins values, the source holds several entries; their conditions need not be identical. Equal entries are not always repeated. Where two headings read alike, the source gives them in different places. A value given as a limit tells only on which side of the number the result lay.

Data set [1] deals with T1, collagen (Gallus gallus, UniProt P02457+P02467).
T1 construct: collagen obtained by grinding and deliming the bone of a spring chicken; from tissue; host or cells: bone of a spring chicken, ground and delimed (demineralised)
T1 sequence (P02467 78-1363): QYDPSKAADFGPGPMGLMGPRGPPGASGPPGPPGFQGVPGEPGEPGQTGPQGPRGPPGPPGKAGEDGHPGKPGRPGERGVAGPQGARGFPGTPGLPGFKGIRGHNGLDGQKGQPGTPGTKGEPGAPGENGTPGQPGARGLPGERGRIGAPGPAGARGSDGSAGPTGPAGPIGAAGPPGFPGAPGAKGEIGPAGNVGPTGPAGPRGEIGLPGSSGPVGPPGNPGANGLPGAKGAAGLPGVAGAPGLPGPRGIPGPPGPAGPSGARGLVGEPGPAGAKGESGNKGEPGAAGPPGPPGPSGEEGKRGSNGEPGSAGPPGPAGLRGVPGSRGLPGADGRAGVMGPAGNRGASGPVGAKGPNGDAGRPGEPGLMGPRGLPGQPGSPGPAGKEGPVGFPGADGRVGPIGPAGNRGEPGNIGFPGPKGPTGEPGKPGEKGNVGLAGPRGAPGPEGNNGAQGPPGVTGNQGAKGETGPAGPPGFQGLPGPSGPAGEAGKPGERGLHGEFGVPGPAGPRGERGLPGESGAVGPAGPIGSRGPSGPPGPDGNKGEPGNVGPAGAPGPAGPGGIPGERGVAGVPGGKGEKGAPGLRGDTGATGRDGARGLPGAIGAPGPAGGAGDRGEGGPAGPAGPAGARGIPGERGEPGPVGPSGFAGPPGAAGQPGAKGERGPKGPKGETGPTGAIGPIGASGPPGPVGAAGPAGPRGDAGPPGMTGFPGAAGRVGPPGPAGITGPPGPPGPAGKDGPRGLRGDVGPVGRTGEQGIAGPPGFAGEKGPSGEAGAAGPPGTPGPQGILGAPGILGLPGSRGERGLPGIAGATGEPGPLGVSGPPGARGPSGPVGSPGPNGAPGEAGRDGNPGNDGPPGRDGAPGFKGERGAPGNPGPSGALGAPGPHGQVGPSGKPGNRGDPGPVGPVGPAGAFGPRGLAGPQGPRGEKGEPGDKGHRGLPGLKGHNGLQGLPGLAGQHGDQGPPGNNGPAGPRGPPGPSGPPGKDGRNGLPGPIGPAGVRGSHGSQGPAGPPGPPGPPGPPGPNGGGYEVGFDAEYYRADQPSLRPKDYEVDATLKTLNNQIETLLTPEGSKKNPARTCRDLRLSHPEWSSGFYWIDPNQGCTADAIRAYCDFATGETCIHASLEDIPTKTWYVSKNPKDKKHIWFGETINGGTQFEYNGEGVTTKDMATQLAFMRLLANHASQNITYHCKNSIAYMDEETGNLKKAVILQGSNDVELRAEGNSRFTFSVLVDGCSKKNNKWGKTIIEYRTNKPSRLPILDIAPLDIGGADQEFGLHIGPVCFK
T1 sequence (P02457 152-1207): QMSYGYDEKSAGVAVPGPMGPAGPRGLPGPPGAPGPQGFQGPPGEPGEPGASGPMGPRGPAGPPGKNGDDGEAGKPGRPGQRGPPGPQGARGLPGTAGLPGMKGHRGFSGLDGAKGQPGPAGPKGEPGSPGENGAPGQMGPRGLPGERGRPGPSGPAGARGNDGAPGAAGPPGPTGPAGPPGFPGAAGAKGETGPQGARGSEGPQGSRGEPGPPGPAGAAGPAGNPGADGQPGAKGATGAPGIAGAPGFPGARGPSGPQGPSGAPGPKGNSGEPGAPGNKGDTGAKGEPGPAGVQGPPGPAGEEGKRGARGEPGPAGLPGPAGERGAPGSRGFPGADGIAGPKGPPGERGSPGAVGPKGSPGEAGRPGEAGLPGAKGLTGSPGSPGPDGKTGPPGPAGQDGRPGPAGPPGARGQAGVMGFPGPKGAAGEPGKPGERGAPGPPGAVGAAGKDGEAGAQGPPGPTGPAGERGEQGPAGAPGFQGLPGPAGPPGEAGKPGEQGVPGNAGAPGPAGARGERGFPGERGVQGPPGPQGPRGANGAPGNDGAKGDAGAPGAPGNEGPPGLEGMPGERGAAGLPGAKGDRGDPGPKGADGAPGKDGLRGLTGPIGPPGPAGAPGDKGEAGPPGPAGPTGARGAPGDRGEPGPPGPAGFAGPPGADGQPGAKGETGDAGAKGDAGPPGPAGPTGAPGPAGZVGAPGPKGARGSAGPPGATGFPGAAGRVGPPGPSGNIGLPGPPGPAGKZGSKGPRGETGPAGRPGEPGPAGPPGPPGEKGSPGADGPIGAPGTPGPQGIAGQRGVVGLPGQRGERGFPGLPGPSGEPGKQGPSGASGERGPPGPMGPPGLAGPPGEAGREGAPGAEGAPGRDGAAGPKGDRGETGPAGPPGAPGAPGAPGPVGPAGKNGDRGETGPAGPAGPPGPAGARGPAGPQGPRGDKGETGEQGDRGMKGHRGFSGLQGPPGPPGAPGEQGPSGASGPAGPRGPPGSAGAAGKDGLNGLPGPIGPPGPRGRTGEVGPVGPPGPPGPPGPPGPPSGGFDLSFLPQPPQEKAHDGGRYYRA
The class given is biochemical, spring chicken.

A short description of data set [2]: LD50 safety data, rat subcutaneous treatment. Conditions: in vivo, sc. The source says: The silicon compound used in the present invention involves no problem with respect to safety. Shown below are data as to the safety of the silicon compounds.
Setting [3] is: silicon compound 0.01 %, collagen 100 mg, glucose 0.2 M, pH 7.4, 37 C, 4 weeks.
Setting [4] is: silicon compound 0.01 %, collagen 100 mg, glucose 0.2 M, pH 7.4, 37 C, 4 weeks, solubilized by cutting with CNBr.
Where [5] appears, read: silicon compound 0.05 %, collagen 100 mg, glucose 0.2 M, pH 7.4, 37 C, 4 weeks.
[6] abbreviates: silicon compound 0.05 %, collagen 100 mg, glucose 0.2 M, pH 7.4, 37 C, 4 weeks, solubilized by cutting with CNBr.
Where [7] appears, read: silicon compound 0.1 %, collagen 100 mg, glucose 0.2 M, pH 7.4, 37 C, 4 weeks.

Consider `O[Si](O)(O)C1CCCCC1` [Cyclohexyl silanetriol, cyclohexyl silanetriol], for which the “Portion A/ portion B” value in data set [1] (setting [3]) stood at 0.42; in data set [1] (setting [5]) it was 0.45. Further, the “Soluble collagen (%)” value in data set [1] (setting [4]) was 68%; in data set [1] (setting [6]), 73%.
Consider `C[Si](O)(O)O[Si](C)(O)O` [Dimer of methyl silnetriol], for which the results for the “Portion A/ portion B” value in data set [1] (setting [3]) and in data set [1] (setting [5]) were 0.35 and 0.40, respectively. For the same molecule, the results for the “Soluble collagen (%)” value in data set [1] (setting [4]) and in data set [1] (setting [6]) were 80% and 75%, respectively.
As to `C[Si](C)(O)O` [Dimethyl silanediol, dimethyl silanediol], the “Portion A/ portion B” value in data set [1] (setting [3]) is on record as 0.43; in data set [1] (setting [7]), 0.35.
As to `CCCCCCCCCCCC[Si](O)(O)O` [Dodecyl silanetriol, dodecyl silanetriol], the “Portion A/ portion B” value in data set [1] (setting [3]) was 0.45; in data set [1] (setting [5]), 0.44. Further, the “Soluble collagen (%)” value in data set [1] (setting [4]) was found to be 68%; in data set [1] (setting [6]) it was 72%.
Turning to `C[Si](O)(O)O` [Methyl silanetriol, methyl silanetriol], the “crosslinking and polymerization of collagen” value in data set [1] (addition of 0.01 to 0.1%) was “inhibits the crosslinking and polymerization of collagen”. The “Soluble collagen (%)” value in data set [1] (pH 7.4) is 50% and 81% and 86% and 76% and 54%. In addition, the “Portion A/ portion B” value was found to be 0.55 in data set [1] (silicon compound 0.003 %, collagen 100 mg, glucose 0.2 M, pH 7.4, 37 C, 4 weeks); 0.40 in data set [1] (setting [3]); 0.35 in data set [1] (silicon compound 0.03 %, collagen 100 mg, glucose 0.2 M, pH 7.4, 37 C, 4 weeks); 0.40 in data set [1] (setting [7]); 0.54 in data set [1] (silicon compound 0.3 %, collagen 100 mg, glucose 0.2 M, pH 7.4, 37 C, 4 weeks). In data set [2], this molecule displayed an LD50 not below 1000 mg/kg.
For the molecule `O[Si](O)(O)c1ccccc1` [Phenyl silanetriol], the “Portion A/ portion B” value in data set [1] (setting [3]) amounted to 0.40; in data set [1] (setting [5]) it was 0.41. Further, the entries for the “Soluble collagen (%)” value in data set [1] (setting [4]) and in data set [1] (setting [6]) were 70% and 72%, respectively.
On to `CC=C[Si](O)(O)O` [Propenyl silanetriol, propenyl silanetriol], for which the “Portion A/ portion B” value in data set [1] (setting [3]) is listed as 0.45; in data set [1] (setting [7]), 0.39. For the same molecule, the “Soluble collagen (%)” value is recorded as 71% in data set [1] (setting [4]) and 72% in data set [1] (silicon compound 0.1 %, collagen 100 mg, glucose 0.2 M, pH 7.4, 37 C, 4 weeks, solubilized by cutting with CNBr).

For orientation: LD50 means the dose at which mortality reaches 50%.
